Like-named read-outs stand apart in the source and are kept apart here.
Tests used:
H322C = assay: MTT cell viability, H322C; type: cell-based; settings: 96 h; Adenocarcinoma lung cell line H322C; 4 days incubation
Method: (§1) The ability of the flurbiprofen analog compounds of the invention to inhibit cancer cell growth and survival (viability) in a variety of cancer lines was examined in a standard MTT assay for cell viability, as detailed in Example 2.
(§2) The studies reported in Tables 1-3 above were carried out by incubating the cells in the test compound for four days, under standard cell-culture conditions, and measuring cell survival on day 5 (see Example 2).
(§3) Cell growth and survival following treatment with N—[(S)-2-Fluoro-α-methyl-4-biphenylacetyl]-[L-(4-phenylphenyl)alanine]-N-(2,2,6,6-tetramethyl-4-piperidinyl)amide (GCBH-110=B1031; (S)-Fmba-L-Bip-Atmp) were measured by a rapid colorimetric assay based on the tetrazolium salt MTT (3-(4,5-dimethylthiazol-2-yl)-2,5-diphenyl tetrazolium bromide) (Mosmann, J. Immunol. Methods 65: 55-63, 1983, with minor modifications).
(§4) Briefly, approximately 1,000-5,000 cancer cells from 15 different cancer cells lines were plated in 100 μL of growth medium in 96-well flat-bottomed microtiter plates. Cells were incubated overnight to allow recovery. Compounds to be tested were added to the cells in triplicate in a range of concentrations and the cells were incubated at 37° C., 5% CO2, with 100% humidity. Control cells were treated in the same way without antagonists. […] Absorbance was immediately determined using a scanning multiwell plate reader.

H3255 = assay: MTT cell viability, H3255; type: cell-based; settings: Adenocarcinoma lung cell line H3255, 4 days incubation
Method: as §1, §2, §3, §4

H322C1 = assay: MTT cell viability, H322C1; type: cell-based; settings: 96 h; Adenocarcinoma lung cell line H322C1; 4 days incubation
Method: as §1, §2, §3, §4

H1703 = assay: MTT cell viability, H1703; type: cell-based; settings: Homo sapiens, NCI-H1703, 96 h; Adenosquamous lung cell line H1703; 4 days incubation
Method: as §1, §2, §3, §4

H460 = assay: MTT cell viability, H460; type: cell-based; settings: Homo sapiens, NCI-H460, 96 h; Large Cell lung cell line H460; 4 days incubation
Method: as §1, §2, §3, §4

H460b = assay: MTT cell viability, H460b; type: cell-based; settings: 96 h; Large Cell lung cell line H460b; 4 days incubation
Method: as §1, §2, §3, §4

H513 = assay: MTT cell viability, H513; type: cell-based; settings: 96 h; Mesothelioma lung cell line H513; 4 days incubation
Method: as §1, §2, §3, §4

H226 = assay: MTT cell viability, H226; type: cell-based; settings: Homo sapiens, NCI-H226, 96 h; Squamous Mesothelioma lung cell line H226; 4 days incubation
Method: as §1, §2, §3, §4

H417 = assay: MTT cell viability, H417; type: cell-based; settings: Homo sapiens, NCI-H417, 96 h; SCLC lung cell line H417; 4 days incubation
Method: as §1, §2, §3, §4

1483 = assay: MTT cell viability, 1483; type: cell-based; settings: Head and neck cancer cell line 1483
Method: as §1
(§5) A similar study was conducted on 14 […] cancer cell lines, identified in Table 2.
as §3
(§6) Briefly, approximately 1,000-5,000 cancer cells from 15 different cancer cells lines were plated in 100 μL of growth medium in 96-well flat-bottomed microtiter plates. Cells were incubated overnight to allow recovery. Compounds to be tested were added to the cells in triplicate in a range of concentrations and the cells were incubated at 37° C., 5% CO2, with 100% humidity. Control cells were treated in the same way without antagonists. […] Plates were incubated for 4 days, allowing sufficient time for cell replication and compound-induced cell death to occur. […] Absorbance was immediately determined using a scanning multiwell plate reader. […]

MSK921 = assay: MTT cell viability, MSK921; type: cell-based; settings: Head and neck cancer cell line MSK921
Method: as §1, §5, §3, §6

1586 = assay: MTT cell viability, 1586; type: cell-based; settings: Head and neck cancer cell line 1586
Method: as §1, §5, §3, §6

Panc-1005 = assay: MTT cell viability, Panc-1005; type: cell-based; settings: Homo sapiens, Panc1005, 96 h; Pancreatic cancer cells Panc-1005; 4 days incubation
From the text: as §1
(§7) Similar results were obtained for the effect of the B1031 compound on the 14 pancreatic tumor cells lines shown in Table 3 below, where the dose dependent effect of the compound on survival of the pancreatic cancer cell lines is shown in FIG. 5.
as §2, §3
(§8) Briefly, approximately 1,000-5,000 cancer cells from 15 different cancer cells lines were plated in 100 μL of growth medium in 96-well flat-bottomed microtiter plates. Cells were incubated overnight to allow recovery. […] Absorbance was immediately determined using a scanning multiwell plate reader.

Capan-2 = assay: MTT cell viability, Capan-2; type: cell-based; settings: Homo sapiens, 96 h; Pancreatic cancer cells Capan-2; 4 days incubation
From the text: as §1, §7, §2, §3, §8

WM375 = assay: MTT cell viability, WM375; type: cell-based; settings: Melanoma cell line WM375
From the text: as §1
The results for the several cell lines above were also consistent with IC50 values measured for two melanoma cell lines shown in Table 4 below.
as §3, §4

[1] = Solubility of flurbiprofen analog compounds; type: physicochemical; settings: medium in which the compound is soluble, Table 5
[2] = test system: head and neck cancer cell lines; assay: MTT cell viability, panel of head and neck cancer cell lines; type: cell-based
Method: as §1, §5, §3
Briefly, approximately 1,000-5,000 cancer cells from 15 different cancer cells lines were plated in 100 μL of growth medium in 96-well flat-bottomed microtiter plates. Cells were incubated overnight to allow recovery. Compounds to be tested were added to the cells in triplicate in a range of concentrations and the cells were incubated at 37° C., 5% CO2, with 100% humidity. Control cells were treated in the same way without antagonists. […] Plates were incubated for 4 days, allowing sufficient time for cell replication and compound-induced cell death to occur. On day 5, 25 μL of a 2 mg/mL solution of MTT (Sigma) dissolved in RMPI-1640 was added to each well. The plate was incubated for 4 h at 37° C. The supernatant liquid was removed and the blue formazan complex was dissolved by adding 100 μL of 0.02 N HCl in 75% isopropanol to all wells. Absorbance was immediately determined using a scanning multiwell plate reader.
Similarly, cell growth and survival following treatment with GCBH-110=B1031 was tested using the same MTT assay in 6 head and neck cancer cell lines. GCBH-110=B1031 caused 50% cell death at concentrations between about 0.3 μM and about 2 μM under these conditions (FIG. 3). […] GCBH-110=B1031 caused 50% cell death at concentrations between about 0.2 μM and about 0.8 μM under these conditions.

[3] = test system: U251 malignant glioma cells; assay: Inhibition of U251 malignant glioma cells; type: cell-based; settings: Homo sapiens, U-251; U251 brain cancer cell line, FIG. 6B
Method: FIGS. 6A and 6B show the loss in cell viability in HT-29 colon cancer cells, in response to increasing concentrations of GH 502 (GCBH 118) (FIG. 6A), and the effect of various treatments, including increasing concentration of GH501 (GCBH 110) on U251 malignant glioma cells and BTIC EF12 brain tumor initiating stem cells (FIG. 6B).
The study shown in FIG. 6A examined the effect of GCBH-118 (GH502) on an HT-29 colon cancer cell, showing an IC50 value of about 1 μM. […] The graph indicates an IC50 value for the B1031 compound against the U251 brain cancer cell line of between 2 and 10 μM.

IC50 (H322C): 450 nM
IC50 (H3255; listed as B1031): 900 nM
IC50 (H3255; Homo sapiens, NCI-H3255, 96 h): 910 nM
IC50 (H322C1): 130 nM
IC50 (H1703): 360 nM
IC50 (H460): 480 nM
IC50 (H460b): 400 nM
IC50 (H513): 1800 nM
IC50 (H226): 203 nM
IC50 (H417): 1400 nM
IC50 (Panc-1005): 700 nM
Solubility [1]: 50% DMSO
IC50 ([2]; majority of the head and neck cell lines, read-out: IC50 value, majority of the cell lines): < 500 nM
IC50 ([2]; span over 14 head and neck cancer cell lines, Table 2, FIGS. 3 and 4, read-out: IC50 values): 200 to 2000 nM
IC50 [3]: 2000 to 10000 nM
SMILES: C[C@H](C(=O)N[C@@H](Cc1ccc(-c2ccccc2)cc1)C(=O)NC1CC(C)(C)NC(C)(C)C1)c1ccc(-c2ccccc2)c(F)c1 [GCBH-110, N—[(S)-2-Fluoro-α-methyl-4-biphenylacetyl]-[L-(4-phenylphenyl)alanine]-N-(2,2,6,6-tetramethyl-4-piperidinyl)amide]
IC50 1483: 300 nM
IC50 (MSK921): 770 nM
IC50 1586: 1500 nM
IC50 (Capan-2): 1500 nM
IC50 (WM375): 280 nM
IC50 ([2]; 6 head and neck cancer cell lines, FIG. 3, read-out: concentrations causing 50% cell death): 300 to 2000 nM
IC50 ([2]; another panel of head and neck cancer cell lines, longer treatment exposure, FIG. 4, read-out: concentrations causing 50% cell death): 200 to 800 nM

Source: patent US8575170B2, “Flurbiprofen analogs and methods of use in treating cancer” (The Regents of the Unversity of Colorado, a body corporate, priority 2010, dated 2013)
